target: lipid peroxidation in brain phospholipid liposomes (Bos taurus); assay: Tested for the inhibition of lipid peroxidation in bovine brain phospholipid liposomes

Row | IC50 | SMILES
1 | 8 µM | O=C1c2c(O)cccc2C(=Cc2ccc(O)cc2)c2cccc(O)c21 [1,8-Dihydroxy-10-(4-hydroxy-benzylidene)-10H-anthracen-9-one]
2 | 2 µM | O=C1c2c(O)cccc2C(=Cc2ccc(O)c(O)c2)c2cccc(O)c21 [10-(3,4-dihydroxybenzylidene)-1,8-dihydroxyanthracen-9(10H)-one]
3 | 4 µM | CCCC(=O)C1c2cccc(O)c2C(=O)c2c(O)cccc21 [10-Butyryl-1,8-dihydroxy-10H-anthracen-9-one(Butantrone)]
4 | 8 µM | O=C1c2c(O)cccc2C(=Cc2ccccc2)c2cccc(O)c21 [10-benzylidene-1,8-dihydroxyanthracen-9(10H)-one]
5 | 1 µM | O=C1c2c(O)cccc2C(C(=O)Cc2ccc(O)c(O)c2)c2cccc(O)c21 [10-[2-(3,4-Dihydroxy-phenyl)-acetyl]-1,8-dihydroxy-10H-anthracen-9-one]
6 | 14 µM | O=C1c2c(O)cccc2C(=Cc2ccc([N+](=O)[O-])cc2)c2cccc(O)c21 [1,8-dihydroxy-10-(4-nitrobenzylidene)anthracen-9(10H)-one]
7 | 2 µM | O=C1c2c(O)cccc2C(=Cc2cc(O)c(O)c(O)c2)c2cccc(O)c21 [1,8-Dihydroxy-10-(3,4,5-trihydroxy-benzylidene)-10H-anthracen-9-one]

From BindingDB's records for doi:10.1021/jm00077a015 (Universität Regensburg, 1994)
